Results taken from patent US5352815A, “Agent for suppression and interception of mailard reaction” (Asai Germanium Research Institute Co., Ltd., priority 1992, dated 1994).

Columns and labels:
[1] = Example 2: AGE formation from F-lysine (model glycosylated protein; absorbance at 420 nm) and F-lysine decomposition (HPLC); type: biochemical
Description: The organogermanium compound (1-1) was added to a phosphate buffer solution containing 10 mM of Nα-t-butoxycarbonyl-Nε-fructose-L-lysine(hereinafter abbreviated to F-lysine) as a model glycosylated protein, so that the final concentration became 0, 1, 5, 10 or 50 mM. Then, incubation was conducted at 40° C. for 15 days, after which the formation of AGE was measured by browning degree (absorbance at 420 nm) and the amount of F-lysine decomposed was measured by HPLC to examine the effect of the organogermanium compound (1-1) added.

[2] = test system: mice; assay: Acute oral toxicity in mice (LD50); type: in vivo; conditions: oral administration
Text: (§1) The organogermanium compound (1) used in the present agent has very low toxicity. In the case of oral administration of the compound (1-1), the LD50 is 6 g or more for mice and 10 g or more for rats.

[3] = test system: rats; assay: Acute oral toxicity in rats (LD50); type: in vivo; conditions: oral administration
Text: as §1

[4] = Example 1: Mailard reaction of Nα-t-Boc-lysine (model protein) with glucose; AGE formation (absorbance at 420 nm) and Nα-t-Boc-lysine consumption (HPLC); type: biochemical; conditions: 40° C.
Description: The organogermanium compound (1-1) was added to a phosphate buffer solution (50 mM, pH 7.4) containing 50 mM of Nα-t-butoxycarbonyl-L-lysine (hereinafter abbreviated to Nα-t-Boc-lysine) as a model protein and 1M of glucose, so that the final concentration became 0, 1, 5 or 10 mM. Then, incubation was conducted at 40° C. for 15 days, after which the formation of AGE was measured by browning degree (absorbance at 420 nm) and the amount of Nα-t-Boc-lysine consumed was measured by high-performance liquid chromatography (hereinafter abbreviated to HPLC) to examine the effect of the organogermanium compound (1-1) added.

[5] = Example 3: decomposition of Amadori rearrangement product formed from ribose and alginine (HPLC); type: biochemical; conditions: 40 mM solution mixed 1:1; 37° C., 24 hours, pH 7.4 (FIG. 6)
Description: 20 mg of ribose, 20 mg of alginine and 10 ml of methanol were reacted under refluxing, in a hot bath of 60°-70° C. 10-15 minutes later, 0.1-0.3 ml of acetic acid was added and the reaction was continued for a further 5-10 minutes. Then, the reaction mixture was concentrated under reduced pressure. During the concentration, a small amount of water was added to remove acetic acid. The concentrate was dissolved in 1 ml of water and the solution was subjected to HPLC to collect an Amadori rearrangement product. The product was freeze-dried.
The freeze-dried product of the Amadori rearrangement product was suspended in 4 ml of a sodium phosphate buffer solution (pH 7.4, 0.1M). The suspension was mixed with a sodium phosphate buffer solution containing or not containing 40 mM of the organogermanium compound (1-1), at a 1:1 ratio. The mixture was incubated at 37° C. for 24 hours. Sampling of 0.1 ml was conducted with the lapse of time for immediate analysis by HPLC. When immediate analysis was impossible, the sample was freeze-storedat -20° C.

[6] = test system: proteins in plasma; assay: Example 4: glycation of plasma proteins in Streptozocin-diabetic rats; type: in vivo, Sprague-Dawley female rats; conditions: 100 mg per kg, oral in drinking water
Description: (§2) Streptozocin was intravenously injected into Sprague-Dawley female rats (total 21 rats each weighing 240-270 g) in an amount of 65 mg per kg of body weight to cause diabetes. Then, the rats were divided into two groups, i.e. a control group and an administered group. An organogermanium compound (1-1) was put into drinking water and orally administered to the administered group at night in an amount of 100 mg per kg of body weight.
4, 8 and 14 weeks after the administration of the organogermanium compound (1-1), blood sampling was made from all the rats of the two groups in hungry state. Each blood taken was measured for blood sugar, glucohemoglobin (hereinafter abbreviated to GHb), glycated albumin (hereinafter abbreviated to GA) and Fructosamine (hereinafter abbreviated to Fru). GHb was measured by affinity chromatography using a mini column, and GA was measured by HPLC using two different columns. The body weight, amount of water taken and amount of food taken, of each rat were also recorded simultaneously.

[7] = test system: abdomen skin collagen; assay: Example 5: fluorescence of abdomen skin collagen in Streptozocin-diabetic rats; type: in vivo, Sprague-Dawley female rats; conditions: 100 mg per kg, oral in drinking water; 14 weeks
Description: as §2
(§3) 14 weeks after the administration of the organogermanium compound (1-1), all the rats were killed to collect the skin of abdomen and the tendon of tail. Collagen was extracted from each skin and each tendon and treated with collagenase for solubilization. Each of the solubilized collagens was measured for fluorescence at an excitation wavelength of 370 nm and an absorption wave length of 440 nm. At the same time, hydroxyproline was measured by HPLC; a collagen amount was calculated; and the adjustment of fluorescent intensity was made using the value.

[8] = test system: tail tendon collagen; assay: Example 5: fluorescence of tail tendon collagen in Streptozocin-diabetic rats; type: in vivo, Sprague-Dawley female rats; conditions: 100 mg per kg, oral in drinking water; 14 weeks
Description: as §2, §3

[9] = test system: Fructosamine in serum; assay: Example 6: serum Fructosamine in diabetes patients; type: in vivo, human (diabetes patients); conditions: 750 mg/day for 2 months; 20 diabetes patients (FIG. 11)
Description: An organogermanium compound (1-1) was administered to 20 diabetes patients (they were diagnosed as diabetes by a 75-g grape sugar loading test) at a dose of 750 mg/day for 2 months. Fructosamine content in serum of each patient was measured before and after the administration.
Fructosamine content in serum was measured by an ordinary method, i.e. by adding a test sample or a reference (a standard Amadori rearrangement product) to a NTB solution, subjecting the mixture to incubation at 37° C., and measuring the developed color.

[10] = Example 5: general observations in Streptozocin-diabetic rats (blood sugar, body weight, water, food); type: in vivo, Sprague-Dawley female rats; conditions: 100 mg per kg, oral in drinking water; 4, 8 and 14 weeks; vs control group
Description: as §2
Incidentally, during the test period, i.e. 4, 8 and 14 weeks after the administration of the organogermanium compound (1-1), there was no difference in blood sugar in hungry state, body weight, amount of water taken and amount of food taken, between the two groups.

## N=C(N)NN [aminoguanidine, reference compound]
[1]; compared with compound (1-1), used in its place
  effect in the test of Example 2 (AGE formation and F-lysine consumption): substantially no effect

## O=C(O)C[CH2][Ge](=[O])[O][Ge](=[O])[CH2]CC(=O)O [compound (1-1)]
[2]
  LD50: ≥ 6 g
[3]
  LD50: ≥ 10 g
[4]; 0, 1, 5 or 10 mM, 15 days (FIG. 1)
  suppression of the formation of AGE, concentration dependence: suppressed the formation of AGE dependently upon the concentration
[4]; 10 mM, 15 days, HPLC (FIG. 2)
  consumption of Nα-t-Boc-lysine (suppressed to): about 10%
[4]; 5-10 mM, 15 days, pH 7.4, absorbance at 420 nm (FIG. 1)
  suppression of the formation of AGE: suppressed the formation substantially completely
[1]; 50 mM, 40° C., 15 days, HPLC (FIG. 4)
  consumption of F-lysine (suppressed to): about 20%
[1]; 5-50 mM, 40° C., 15 days, HPLC (FIG. 4)
  consumption of F-lysine: suppressed the consumption of F-lysine
[1]; 5-50 mM, 40° C., 15 days, absorbance at 420 nm (FIG. 3)
  suppression of the formation of AGE: suppressed the formation of AGE substantially completely
[5]
  alginine increase and unidentified substance peak increase: substantially seen neither alginine increase nor unidentified substance peak increase
  decrease of the Amadori rearrangement product: very mild
[6]; 8 weeks (FIG. 8)
  Fru (Fructosamine) vs control group: significantly lower in the administered group
[6]; 14 weeks
  GA (glycated albumin) vs control group: significantly lower in the administered group
[6]; 14 weeks, compared with 8 weeks
  Fru (Fructosamine) difference vs control group: the difference was more significant in 14 weeks
[6]; test period, vs control group
  body weight, amount of water taken and amount of food taken: no difference
[6]; vs control group
  GHb (glucohemoglobin): lower in the administered group
  blood sugar in hungry state: no difference
[7]
  fluorescence of skin collagen vs control group: significantly lower
[8]
  fluorescence of tendon collagen vs control group: significantly lower
[9]
  Fructosamine content in serum after vs before administration: lower after the administration
[10]
  blood sugar in hungry state: no difference
  body weight, amount of water taken and amount of food taken: no difference
